These are literature values, as cited in patent publication US20040097599A1, “Antibacterial and antifungal compositions based on branched C-11 alcohols” (priority 2001, published 2004).

This series deals with Streptococcus mutans. Particulars: towards Streptococcus mutans; J. Agric. Food Chem. 1993, 41, 2447-2450.

In brackets after ≈: the same amount, converted by molar mass.

As for `CCCCCCCCCCCCO` [1-dodecanol], the “MIC (Minimum Inhibitory Concentration)” value is 6.25 µg/mL (≈ 33.5 µM).
As for `CCCCCCCCCCCCCO` [1-tridecanol], the “MIC (Minimum Inhibitory Concentration)” value is 6.25 µg/mL (≈ 31.2 µM).
